# Reference: ChEMBL document CHEMBL1201862, “PubChem BioAssay data set” (2004)
#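 How tested: cells in 96-well plates exposed to compound for 48 hours at five concentrations. GI50: concentration for 50% inhibition of growth.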 The source made the active and inactive calls. Rule as the data show it: active = GI50 up to about 1.1 µM and inactive = higher.
# Assays:
# Assay in all cases: NCI tumour cell line growth inhibition, 48 h
# MOLT-4 = system: MOLT-4
# NCI-H460 = system: NCI-H460
# 786-0 = system: 786-0
# K562 = system: K562
# BT-549 = system: BT-549
# KM12 = system: KM12
# MDA-MB-435 = system: MDA-MB-435
# SNB-75 = system: SNB-75
# COLO 205 = system: COLO 205
# T47D = system: T47D
# LOX IMVI = system: LOX IMVI
# SK-MEL-5 = system: SK-MEL-5
# NCI-H522 = system: NCI-H522
# HCC 2998 = system: HCC 2998
# RXF 393 = system: RXF 393
# SK-MEL-28 = system: SK-MEL-28
# UACC-257 = system: UACC-257
# Malme-3M = system: Malme-3M
# SR = system: SR
# HL-60 = system: HL-60
SMILES,GI50 (MOLT-4),GI50 (NCI-H460),GI50 (786-0),GI50 (K562),GI50 (BT-549),GI50 (KM12),GI50 (MDA-MB-435),GI50 (SNB-75),GI50 (COLO 205),GI50 (T47D),GI50 (LOX IMVI),GI50 (SK-MEL-5),GI50 (NCI-H522),GI50 (HCC 2998),GI50 (RXF 393),GI50 (SK-MEL-28),GI50 (UACC-257),GI50 (Malme-3M),GI50 (SR),GI50 (HL-60)
COC(=O)c1cc(-c2ccc(-c3ccc(O)cc3)cc2)cc(-c2ccc(-c3ccc(O)cc3)cc2)c1,10.4 µM (inactive),17.8 µM (inactive),5.98 µM (inactive),4.51 µM (inactive),13.7 µM (inactive),2.17 µM (inactive),10.4 µM (inactive),7.74 µM (inactive),12.6 µM (inactive),4.61 µM (inactive),6.14 µM (inactive),17 µM (inactive),2.62 µM (inactive),11.2 µM (inactive),5.62 µM (inactive),13 µM (inactive),14.1 µM (inactive),,,
Cc1oc2c(c1C)S(=O)(=O)C(C#N)=C(c1ccccc1)N2,> 100 µM (inactive),> 100 µM (inactive),> 100 µM (inactive),> 100 µM (inactive),> 100 µM (inactive),> 100 µM (inactive),> 100 µM (inactive),> 100 µM (inactive),> 100 µM (inactive),> 100 µM (inactive),> 100 µM (inactive),> 100 µM (inactive),> 100 µM (inactive),> 100 µM (inactive),,> 100 µM (inactive),> 100 µM (inactive),63.5 µM (inactive),> 100 µM (inactive),
COc1ccc(C2SCC(=O)N2NC(=O)c2ccc(NC(C)=O)cc2)cc1 (stereo unspecified),> 100 µM (inactive),> 100 µM (inactive),> 100 µM (inactive),> 100 µM (inactive),74.1 µM (inactive),> 100 µM (inactive),> 100 µM (inactive),> 100 µM (inactive),> 100 µM (inactive),> 100 µM (inactive),,> 100 µM (inactive),,> 100 µM (inactive),> 100 µM (inactive),> 100 µM (inactive),> 100 µM (inactive),,,
CC(=O)OCCCCn1cc(Cn2ccc(=O)n(Cc3cn(CCCCOC(C)=O)nn3)c2=O)nn1,> 100 µM (inactive),,> 100 µM (inactive),,> 100 µM (inactive),> 100 µM (inactive),> 100 µM (inactive),> 100 µM (inactive),> 100 µM (inactive),> 100 µM (inactive),> 100 µM (inactive),> 100 µM (inactive),,> 100 µM (inactive),> 100 µM (inactive),> 100 µM (inactive),> 100 µM (inactive),> 100 µM (inactive),,
C1CSCCCSCCCSCCCSCCCSCCCSCCCSCCCSC1,> 100 µM (inactive),> 100 µM (inactive),> 100 µM (inactive),> 100 µM (inactive),> 100 µM (inactive),> 100 µM (inactive),> 100 µM (inactive),,> 100 µM (inactive),> 100 µM (inactive),> 100 µM (inactive),85.9 µM (inactive),> 100 µM (inactive),> 100 µM (inactive),> 100 µM (inactive),> 100 µM (inactive),> 100 µM (inactive),> 100 µM (inactive),,> 100 µM (inactive)
CCCCCCc1cc2cc(-c3cn4ccsc4n3)c(=O)oc2cc1O,> 100 µM (inactive),> 100 µM (inactive),> 56.9 µM (inactive),> 75.2 µM (inactive),> 100 µM (inactive),> 100 µM (inactive),,8.15 µM (inactive),> 100 µM (inactive),> 100 µM (inactive),> 100 µM (inactive),> 30.9 µM (inactive),29.2 µM (inactive),> 100 µM (inactive),29.3 µM (inactive),> 25.4 µM (inactive),> 24.5 µM (inactive),,> 100 µM (inactive),> 100 µM (inactive)
Cc1ccc(C(=O)NCc2ccccc2)cc1/N=N/N(C)C,56.8 µM (inactive),> 100 µM (inactive),> 100 µM (inactive),> 100 µM (inactive),> 100 µM (inactive),64.4 µM (inactive),> 100 µM (inactive),,> 100 µM (inactive),39.7 µM (inactive),58.1 µM (inactive),> 74.3 µM (inactive),27.7 µM (inactive),> 100 µM (inactive),,> 96.6 µM (inactive),21.4 µM (inactive),> 100 µM (inactive),60 µM (inactive),37.2 µM (inactive)
COc1ccc(OC)c(C(Cc2ccnc3ccccc23)Cc2ccnc3ccccc23)c1,5.79 µM (inactive),5.47 µM (inactive),> 10 µM (inactive),4.53 µM (inactive),4.09 µM (inactive),7.29 µM (inactive),0.56 µM (active),6.11 µM (inactive),8.04 µM (inactive),6.25 µM (inactive),5.36 µM (inactive),3.66 µM (inactive),6.32 µM (inactive),> 10 µM (inactive),> 10 µM (inactive),> 10 µM (inactive),> 10 µM (inactive),,,
